Columns and labels:
[1] = type: in vivo
[2] = oxymorphone-induced Straub tail test for antagonist activity; type: in vivo

Compound	Agonist Activity ED50, Mice (SC) [1]	ED50 ([2]; sc, read-out: subcutaneous ED50, antagonist activity)	times the antagonist activity of butorphanol ([2]; subcutaneous, relative to butorphanol)	Agonist Activity ED50, Mice (PO) ([1]; PO)	times as potent as morphine sulfate, orally ([1]; mice, oral, relative to morphine sulfate)
COc1ccc2c(c1)[C@]13CCN(C)[C@H](C2)[C@@H]1CC(C)(C)OC3.Cl (racemic) [BL-6028, 3-Methoxy-7,7,17-trimethyl-6-oxamorphinan Hydrochloride]	0.053 mg/kg				
CN1CC[C@]23COC(C)(C)C[C@H]2[C@H]1Cc1ccc(O)cc13 (racemic) [BL-6092, 3-Hydroxy-7,7,17-trimethyl-6-oxamorphinan]	0.038 mg/kg				
CC1(C)C[C@H]2[C@H]3Cc4ccc(O)cc4[C@@]2(CCN3CC2CC2)CO1.Cl (racemic) [BL-6097, 17-Cyclopropylmethyl-7,7-dimethyl-3-hydroxy-6-oxamorphinan Hydrochloride]	0.083 mg/kg	0.8 mg/kg	about 1.2 times	0.35 mg/kg	about 8.9 times

From patent US4246413A, “6-Oxamorphinans” (priority 1979, dated 1981)
